For orientation: inhibition means the relative decrease from the control value, in per cent.

The test system of test [1] is Human Conjunctival Tissue Mast Cells. The test is described as follows: Compound effect on histamine release from human conjunctival tissue mast cells upon anti-human IgE challenge. The format is cell-based. The conditions noted are these: for inhibition of human conjunctival mast cell degranulation: statement on Table 1; for inhibition at 500 µM: * p < 0.05 Dunnett's, isomers not significantly different (p > 0.05 Studentized Range), read-out: Inhibition (%) of in-vitro histamine release, isomer comparison. As for the experimental part:
The inhibitory effects of reported anti-allergic, mast cell stabilizing drugs on mast cells obtained from human conjunctiva (the target cells for topical ophthalmic drug preparations claimed useful in treating allergic conjunctivitis) were tested according to the following experimental method. Human conjunctival tissues obtained from organ/tissue donors were weighed and transferred to petri dishes containing RPMI 1640 culture medium supplemented with heat inactivated fetal bovine serum (20%, v/v), L-glutamine (2 mM), penicillin (100 units/ml), streptomycin (100 μg/ml), amphotericin B (2.5 μg/ml) and HEPES (10 mM) and equilibrated overnight at 37° C. (5% CO2).
Post equilibration, tissues were placed in Tyrode's buffer (in mM: 137 NaCl, 2.7 KCl, 0.35 Na H2 PO4, 1.8 CaCl2, 0.98 MgCl2, 11.9 Na HCO3, 5.5 glucose) containing 0.1% gelatin (TGCM) and incubated with 200 U each of collagenase (Type IV) and hyaluronidase (Type I-S) per gram of tissue for 30 minutes at 37° C. Following enzyme digestion, tissues were washed with an equal volume of TGCM over Nitex® filter cloth (Tetko, Briarcliff Manor, N.Y.). Intact tissues were placed in TGCM for further enzymatic digestions.
The flitrate obtained from each digestion was centrifuged (825 g, 7 minutes) and pelleted cells were resuspended in calcium/magnesium free Tyrode's buffer (TG). Pooled cells from all digestions were centrifuged (825 g, 30 minutes) over a […] Percoll® cushion. Mast cell enriched cell pellets were resuspended and washed in TG buffer. Viability and number of mast cells were determined by vital dye exclusion and toluidine blue 0 staining of the harvested cell suspensions. Mast cell containing preparations were placed in supplemented RPMI 1640 culture medium and allowed to equilibrate at 37° C. prior to challenge with anti-human IgE (goat derived IgG antibody).
Cell suspensions containing 5000 mast cells were added to TGCM containing tubes and challenged with anti-human IgE. The final volume of each reaction tube was 1.0 mL. Tubes were incubated at 37° C. for 15 minutes post challenge. The release reaction was terminated by centrifugation (500 g, 7 minutes). Supernatants were collected and stored (-20° C.) until mediator analyses.
Initially, supernatants were analyzed for histamine content by both the automated fluorimetric method described by Siraganian, "An Automated Continuous Flow System for the Extraction and Fluorometric Analysis of Histamine," Anal. Biochem., Vol. 57, 383-94 (1974), and a commercially available radioimmunoassay (RIA) system (AMAC, Inc., Westbrook, Me.). Results from these assays were positively correlated (r=0.999): therefore, the remainder of histamine analyses were performed by RIA.
Each experiment included an anti-human IgE (plus vehicle) positive release control, a spontaneous/vehicle release and a total histamine release control. Total histamine release was determined by treatment with Triton X-100® (0.1%). The experiments also included a non-specific goat IgG control. Test compounds are administered to the mast cell cultures either 1 or 15 minutes before stimulation with anti-human IgE. Inhibition of histamine release resulting from challenge of drug treated mast cells was determined by direct comparison with histamine release from vehicle treated, anti-IgE challenged mast cells using Dunnett's t-test (Dunnett, "A multiple comparison procedure for comparing treatments with a control, " J. Amer. Stat Assoc., Vol. 50, 1096-1121 (1955)).
Dunnett's t-test, is a statistical test which compares multiple treatment groups with one control group. In the assay described above, histamine released from drug treated mast cells are compared to histamine released from the anti-human IgE plus vehicle treated mast cells which serve as the positive control. Statistically significant inhibition is determined using this procedure. The probability level of 0.05 is accepted as the level of significance in biomedical research. […]

Test [2] has as its system human skin mast cells. Conditions: cited from earlier work.
Test [3] relates to rodent mast cell. The conditions noted are these: cited from earlier work.
Test [4] relates to mast cells obtained from bronchoalveolar lavage fluid. The conditions noted are these: 100 μM; cited from earlier work.
Test [5] has as its system rat conjunctiva. The conditions noted are these: 0.1 % strength.
Source text: This assay indicates whether a topically applied compound effectively prevents or decreases the local allergic response in the conjunctiva. This assay allows an assessment of bioavailability following topical dosing. Briefly, male Sprague Dawley rats (6/group) were passively sensitized by subconjunctival injection of a rat serum containing IgE specific for ovalbumin (OA). Twenty-four hours post sensitization, test compound prepared in saline (0.9% NaCl) or saline vehicle was applied topically onto the sensitized eye. Twenty (20) minutes after dosing, rats were challenged intravenously via the lateral tail vein with 1.0 ml of a solution containing OA (1.0 mg/ml) and Evans Blue dye (2.5 mg/ml). Thirty (30) minutes post antigen challenge, animals were killed, skin was reflected, and the size of the resulting wheal and the intensity of the extravasated dye were determined.
[6] abbreviates: Homo sapiens, Mast cell, 1 min, treatment 1 min.
Where [7] appears, read: Homo sapiens, Mast cell, 0.25 h, treatment 15 min.
[8] abbreviates: Homo sapiens, Mast cell, 0.25 h, treatment 15 min, * p < 0.05 Dunnett's t-test.

For `CCCc1c2oc(C(=O)O)cc(=O)c2cc2c(=O)cc(C(=O)O)n(CC)c12` [Nedocromil sodium], in test [1] (setting [6]), the inhibition at 0.1 µM amounted to 17.4%, the inhibition at 0.3 µM is 8.8%, the inhibition at 1 µM is 4.8% and the inhibition at 3 µM stood at 0.8%. Besides, in test [1] (setting [6]), the inhibition at 10 µM was -6.5%, the inhibition at 30 µM is -0.9%, the inhibition at 100 µM is 6.7% and the inhibition at 300 µM came out at 4%. The inhibition at 1000 µM in test [1] (setting [6]) was -1.1%. Also, in test [1] (setting [7]), the inhibition at 0.1 µM was 8.7%, the inhibition at 0.3 µM came to 3.7%, the inhibition at 1 µM was determined as 10.7% and the inhibition at 3 µM turned out to be 13.2%. Besides, in test [1] (setting [7]), the inhibition at 10 µM turned out to be 9.2% and the inhibition at 30 µM is 15.2%. Further, in test [1] (setting [8]), the inhibition at 100 µM amounted to 28.2%, the inhibition at 300 µM is 11.3% and the inhibition at 1000 µM was 7.2%. In addition, in test [1], the “inhibition of human conjunctival mast cell degranulation” value is “failed to significantly inhibit human conjunctival mast cell degranulation”.

For `O=C(O)c1cc(=O)c2c(OCC(O)COc3cccc4oc(C(=O)O)cc(=O)c34)cccc2o1` [Cromolyn sodium], the “inhibition of histamine release from human skin mast cells” value in test [2] is “not inhibited at all”. The “inhibition of rodent mast cell degranulation” value in test [3] is listed as “inhibit rodent mast cell degranulation”. Also, in test [4], the “inhibition of mast cells from bronchoalveolar lavage fluid” value is reported as “inhibited”. In test [1] (setting [6]), the inhibition at 10 µM was -0.9%, the inhibition at 30 µM is 0.1%, the inhibition at 100 µM is 1.2% and the inhibition at 300 µM was -1.8%. In test [1] (setting [6]), the inhibition at 1000 µM is -9.4%. Further, in test [1] (setting [7]), the inhibition at 10 µM turned out to be 10.6% and the inhibition at 30 µM stood at 1.8%. For the same molecule, in test [1] (setting [8]), the inhibition at 100 µM is -1.2%, the inhibition at 300 µM is -6.9% and the inhibition at 1000 µM was -15.4%. Also, the “inhibition of human conjunctival mast cell degranulation” value in test [1] is “failed to significantly inhibit human conjunctival mast cell degranulation”.

On to `CN(C)CC/C=C1\c2ccccc2COc2ccc(CC(=O)O)cc21` [Compound A (trans), E-11-(3-dimethylaminopropylidene)-6,11-dihydrodibenz[b,e]oxepin-2-acetic acid], for which the inhibition at 500 µM in test [1] (setting [7]) came out at 26.2%.

As for `CN(C)CCC=C1c2ccccc2COc2ccc(/C=C\C(=O)O)cc21` [Compound C, (Z)11-(3-Dimethylaminopropylidene)-6,11-dihydrodibenz[b,e]oxepin2-acrylic acid], in test [5], the “% Change (permeability score)” value is on record as -53%.

Turning to `CN(C)CC/C=C1/c2ccccc2COc2ccc(C(=O)O)cc21` [Compound B, (Z)11-(3-Dimethylaminopropylidene)-6,11-dihydrodibenz[b,e]oxepin2-carboxylic acid], the “% Change (permeability score)” value in test [5] was -55%.

As to `CN(C)CC/C=C1/c2ccccc2COc2ccc(CC(=O)O)cc21` [Compound A (cis), Z-11-(3-dimethylaminopropylidene)-6,11-dihydrodibenz[b,e]oxepin-2-acetic acid], the inhibition at 500 µM in test [1] (setting [7]) was 29.7%. Besides, in test [1], the “inhibition of human conjunctival mast cell degranulation” value is “concentration-dependent inhibition of mast cell degranulation”.

On to `CN(C)CC/C=C1/c2ccccc2COc2ccc(CC(=O)O)cc21` [Compound A, 11-(3-dimethylaminopropylidene)-6,11-dihydrodibenz[b,e]oxepin-2-acetic acid], for which the inhibition at 30 µM in test [1] (setting [7]) is -3.9%. Moreover, in test [1] (setting [8]), the inhibition at 100 µM was 13%, the inhibition at 300 µM is 29.6% and the inhibition at 1000 µM came to 66.7%. In addition, the inhibition at 600 µM in test [1] (Homo sapiens, Mast cell, 0.25 h, 600 μM, treatment 15 min, * p < 0.05 Dunnett's t-test) stood at 47.5%. Further, the inhibition at 2000 µM in test [1] (Mast cell, 2000 μM, treatment 15 min before anti-human IgE, * p < 0.05 Dunnett's t-test) stood at 92.6%.

The values are drawn from US5641805A, “Topical ophthalmic formulations for treating allergic eye diseases” (Alcon Laboratories, Inc., priority 1995, dated 1997).
